# Like-named read-outs stand apart in the source and are kept apart here.
# What was measured:
# hTREK-1 [1] = molecular target: T1, hTREK-1 (Homo sapiens, UniProt O95069)
# T1 sequence (O95069 1-422 isoform O95069-3): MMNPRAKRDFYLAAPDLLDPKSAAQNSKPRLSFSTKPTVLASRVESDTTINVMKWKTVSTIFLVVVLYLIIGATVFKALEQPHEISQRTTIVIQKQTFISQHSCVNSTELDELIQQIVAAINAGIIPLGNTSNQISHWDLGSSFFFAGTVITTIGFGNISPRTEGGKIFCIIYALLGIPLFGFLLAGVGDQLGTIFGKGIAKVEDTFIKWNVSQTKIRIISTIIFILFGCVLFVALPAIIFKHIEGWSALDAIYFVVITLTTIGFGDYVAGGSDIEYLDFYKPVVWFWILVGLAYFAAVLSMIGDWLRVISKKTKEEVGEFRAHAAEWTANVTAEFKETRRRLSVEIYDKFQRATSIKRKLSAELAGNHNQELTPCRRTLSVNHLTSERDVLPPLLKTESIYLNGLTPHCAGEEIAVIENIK
# naive HEK293 cells = test: Thallium flux assay on naive (untransfected) HEK293 cells; settings: 10 µM
# Procedure: Cells were plated in 384-well plates with black walls and clear bottom coated with poly-D-lysine (Greiner Bio-One, Kremsmünster, Austria, #781946) at a density of 25 000 cells/well from a 1 250 000 cells/mL solution. Cell counting was performed with an automatic cell counter (Countness II FL, ThermoFisher, Waltham, MA, USA) with addition of trypan blue 0.2% to exclude dead cells. 24 h after plating, cells were incubated with FluxOR II green probe (ThermoFisher) for 1 h in the dark, accordingly to the supplier’s protocol (‘no wash’ procedure) with addition of 77 mg/mL probenecide. […] Fluorescence was measured every 3 s during 1 min (excitation 485 nm, emission 515 nm), and 0.5 mM thallium was added to the wells after a 20 s baseline. […] Fluorescence is normalized using the formula (F − F0)/F0 where F0 is the average fluorescence during the first 18 s of the recording. ΔFmax/F0 is calculated between 18 and 33 s (−2 to 13 s relative to thallium addition). For dose–response curves, ΔFmax/F0 are expressed as %vehicle (100% corresponding to the average ΔFmax/F0 measured in vehicle-treated wells). For high throughput screening, Z scores were calculated as(1) Z=Xsample−X¯neg/σneg where X represents ΔFmax/F0 and σ the ΔFmax/F0 standard deviation. ‘neg’ represents negative controls (vehicle-treated wells). […]
# hTREK-1 [2] = molecular target: T1, hTREK-1; test: Whole cell patch clamp on HEK-hTREK-1 cells; assay type: cell-based; set-up: transfected with the human Kcnk2 (NM_001017424) or Kcnk10 (NM_021161) ORF cloned in a pEZ-M02 expression vector
# CD1 mice [3] = test: Open field test in CD1 mice; assay type: in vivo, mouse; settings: i.p., 15 min before open field test
# Procedure: (§1) Mice were placed in the center of a 50 × 50 cm arena with 45 cm high walls. Animals were filmed for 10 min and the distance traveled was measured using video-tracking software (Viewpoint Videotrack 5.13.0.10).
# To search for possible adverse effects induced by LPS2336 in vivo, we submitted CD1 mice to different confounding tests aiming at characterizing motor coordination, balance, muscle strength and spontaneous locomotor activity. […] To assess the contribution of TREK-1 to this adverse effect, we submitted TREK-1 knock-out mice (which are of the C57Bl6/J background) to the same test, 15 min following the injection of 50 mg/kg LPS2336. […] We finally submitted the mice to a third test consisting in observing their spontaneous locomotion in an open arena (open field test). […] Finally, we monitored the body temperature of mice for 45 min after intraperitoneal injection of LPS2336 at 40 mg/kg and could observe hypothermia in both WT and TREK-1 KO (−2.4 and −2.6 °C, respectively) following LPS2336 treatment (Figure 7F,G).
# CD1 mice [4] = test: Hargreaves test in carrageenan-induced paw inflammation; assay type: in vivo, mouse
# [5] = test system: WT and TREK-1 KO littermates of C57Bl6/J background; test: Body temperature monitoring (rectal probe); assay type: in vivo, mouse; settings: i.p. 40 mg/kg, 15 min after injection minus before
# Excerpt: (§2) TREK-1^−/− mice were generated by crossing mice carrying an allele of the Kcnk2 gene in which exon 3 was floxed (RRID:MGI:3050295) with ZP3-Cre mice (RRID:MGI:3835429), both in C57Bl6/J background. F1 females, producing TREK-1^+/− oocytes, were crossed with WT males. TREK-1^+/− F2 offspring not carrying the ZP3-Cre transgene were finally crossed together to generate TREK-1^−/− and TREK-1^+/+ littermates, which were weaned in separate cages after genotyping using 2 mm tail samples taken at 10 days of age. Animals were identified by digital tattoos at 3 weeks of age.
# Body temperature was measured using a rectal probe in awake animals before and 15, 30 and 45 min after injection of LPS2336.
# To search for possible adverse effects induced by LPS2336 in vivo, we submitted CD1 mice to different confounding tests aiming at characterizing motor coordination, balance, muscle strength and spontaneous locomotor activity. […] To assess the contribution of TREK-1 to this adverse effect, we submitted TREK-1 knock-out mice (which are of the C57Bl6/J background) to the same test, 15 min following the injection of 50 mg/kg LPS2336. […] Finally, we monitored the body temperature of mice for 45 min after intraperitoneal injection of LPS2336 at 40 mg/kg and could observe hypothermia in both WT and TREK-1 KO (−2.4 and −2.6 °C, respectively) following LPS2336 treatment (Figure 7F,G).
# [6] = test system: WT and TREK-1 KO littermates of C57Bl6/J background; test: Horizontal bar test in WT and TREK-1 KO littermates; assay type: in vivo, mouse; settings: i.p. 50 mg/kg, 15 min
# Excerpt: as §2
# A 13 cm long, 2 mm diameter metal bar was placed horizontally between 2 rods at a 30 cm height. […] After gently releasing the tail, the time taken by mice to climb on the bar (grabbing it with their four paws) was monitored.
# (§3) To search for possible adverse effects induced by LPS2336 in vivo, we submitted CD1 mice to different confounding tests aiming at characterizing motor coordination, balance, muscle strength and spontaneous locomotor activity. […] Finally, we monitored the body temperature of mice for 45 min after intraperitoneal injection of LPS2336 at 40 mg/kg and could observe hypothermia in both WT and TREK-1 KO (−2.4 and −2.6 °C, respectively) following LPS2336 treatment (Figure 7F,G).
# hTREK-1 [7] = molecular target: T1, hTREK-1; test: cell-based
# [8] = test system: WT and TREK-1 KO littermates of C57Bl6/J background; test: Open field test in WT and TREK-1 KO littermates; assay type: in vivo, mouse; settings: i.p. 50 mg/kg
# Excerpt: as §2, §1, §3
# [9] = 50 µM, HEK-hTREK-1 cells, vs vehicle
smiles,measurement,setting,value
N#CCCN1CCC(Cc2ccccc2)CC1 [2a],TREK-1 activation by analogs,hTREK-1 [1],profound decrease in TREK-1 activation
CC1CCN(CC#N)CC1 [2b],TREK-1 activation by analogs,hTREK-1 [1],loss of TREK-1 activation
CCC#CCN1CCC(Cc2ccccc2)CC1 [2c],TREK-1 activation by analogs,hTREK-1 [1],profound decrease in TREK-1 activation
N#CCN1CCCCC1 [2d],TREK-1 activation by analogs,hTREK-1 [1],loss of TREK-1 activation
N#CCCCN1CCC(Cc2ccccc2)CC1 [2e],TREK-1 activation by analogs,hTREK-1 [1],profound decrease in TREK-1 activation
c1ccc(CC2CCN(Cc3ccccc3)CC2)cc1 [2f],TREK-1 activation by analogs,hTREK-1 [1],profound decrease in TREK-1 activation
CCCCN1CCC(Cc2ccccc2)CC1 [2g],TREK-1 activation by analogs,hTREK-1 [1],profound decrease in TREK-1 activation
CCOC(=O)CN1CCC(Cc2ccccc2)CC1 [2h],TREK-1 activation by analogs,hTREK-1 [1],severely impacted TREK-1 activation ability
O=C(O)CN1CCC(Cc2ccccc2)CC1 [2i],TREK-1 activation by analogs,hTREK-1 [1],severely impacted TREK-1 activation ability
NCCN1CCC(Cc2ccccc2)CC1 [2j],TREK-1 activation by analogs,hTREK-1 [1],severely impacted TREK-1 activation ability
NC(=O)CN1CCC(Cc2ccccc2)CC1 [2k],TREK-1 activation by analogs,hTREK-1 [1],severely impacted TREK-1 activation ability
"c1ccc(-c2nn[nH]n2)c(Nc2cccc3c2CCCC3)c1 [BL-1249, reference compound]",concentrations at which active on TREK-1,hTREK-1 [1],active at sub-micromolar concentrations
same,toxicity to HEK-hTREK-1 cells,hTREK-1 [1]; 100 µM,visible cell death
same,effect on fluorescence in naive cells,naive HEK293 cells,no effect
Nc1ccc(Oc2ccc(C(c3ccc(Oc4ccc(N)cc4)cc3)(C(F)(F)F)C(F)(F)F)cc2)cc1 [GI-530159],increase of mean current density recorded at 0 mV,hTREK-1 [2]; [9],9.73 fold
N#CCN1CCC(Cc2ccccc2)CC1 [LPS2336],dose from which spontaneous locomotion is decreased,CD1 mice [3],≥ 30 mg/kg
same,dose able to reverse the pain phenotype,"CD1 mice [4]; intracerebroventricular, effect similar to 1 µg morphine",100 µg
same,dose at which the analgesic effect reaches a plateau,CD1 mice [4]; intraperitoneal,20 mg/kg
same,time of peak analgesia after injection,CD1 mice [4]; intraperitoneal,15 min
same,dose from which pain thresholds are increased,"CD1 mice [4]; intraperitoneal, carrageenan-injected CD1 mice",≥ 20 mg/kg
same,effect on pain thresholds at the highest intrathecal dose,"CD1 mice [4]; intrathecal, 300 µg (1400 nmol)","slight, non-significant effect"
same,pain relief after intrathecal administration,"CD1 mice [4]; intrathecal, doses up to 300 µg",not effective
same,"change in body temperature (hypothermia), WT mice",[5]; C57Bl6/J WT,−2.4 °C
same,"change in body temperature (hypothermia), TREK-1 KO mice",[5]; TREK-1 KO,−2.6 °C
same,"horizontal bar test, WT vs TREK-1 KO",[6],no difference between WT and TREK-1 KO mice
same,time to climb on horizontal bar in WT littermates,[6]; C57Bl6/J WT,same increase in time to climb
same,increase of mean current density recorded at 0 mV,hTREK-1 [2],10.77 fold
same,EC50,hTREK-1 [7],11.8 µM
same,"open field test, WT vs TREK-1 KO",[8],no difference between WT and TREK-1 KO mice
same,spontaneous locomotion in C57Bl6/J mice,[8],same adverse effect as CD1 mice
same,average Z score in high throughput screening,hTREK-1 [1],3.50 ± 0.24
same,times over the positivity threshold,hTREK-1 [1],3/3
O=C(NCCCCN1CCN(Cc2ccccc2)CC1)c1ccc2ccccc2c1 [LPS6257],change in ΔFmax/F0 compared to the vehicle condition,hTREK-1 [1],−70%
"CS(=O)(=O)Nc1ccc(C(=O)NCc2ccc(Cl)cc2Cl)cc1 [ML335, reference compound]",increase of mean current density recorded at 0 mV,hTREK-1 [2]; [9],13.35 fold
same,increase in ΔFmax/F0,hTREK-1 [1],2.60 fold
same,effect of salification on TREK-1 activation,hTREK-1 [1]; 100 µM,increased TREK-1 activation
same,EC50,"hTREK-1 [1]; read-out: EC50 (TREK-1 activation, thallium assay)",6.7 µM
"Cc1cc(Cl)ccc1OCCNC(=O)c1cccs1 [ML402, reference compound]",effect of salification on TREK-1 activation,hTREK-1 [1]; 100 µM,increased TREK-1 activation
"CNCCC(Oc1ccc(C(F)(F)F)cc1)c1ccccc1 (centres unmarked) [fluoxetine, reference compound]",TREK-1 activation (ΔFmax/F0),hTREK-1 [1],54 % of vehicle
"CN1CC[C@]23c4c5ccc(O)c4O[C@H]2[C@@H](O)C=C[C@H]3[C@H]1C5 [morphine, reference compound]",analgesia after intracerebroventricular administration,"CD1 mice [4]; intracerebroventricular, 1 µg (3.5 nmol)",analgesic
same,analgesia after intrathecal administration,"CD1 mice [4]; intrathecal, 3 µg (10.5 nmol)",long-lasting analgesia

# From publication PMC12109561, “LPS2336, a New TREK-1 Channel Activator Identified by High Throughput Screening” (Biomolecules, 2025)
